Test results as given in patent US9120815B2, “Solid state forms of macrocyclic kinase inhibitors” (Tragara Pharmaceuticals, Inc., priority 2010, dated 2015).
“Also recorded” adds a separate entry of the source.

What was measured:
Format in all cases: physicochemical
[1] = Stability in humidity chamber 40° C./75% R.H. (XRPD, HPLC); settings: 2 weeks
Description: After 2 days, the solids were isolated by filtration under vacuum at RT to be characterised by XRPD analysis. Each new crystalline solid phase detected was characterised by ^1H NMR and TGA-DSC analyses in order to determine if salt formation had occurred and whether the material was a solvate. At this stage, each salt identified was then analysed by HPLC to determine the chemical purity prior to being stored in the humidity chamber (40° C./75% R.H.) to assess its stability.

[2] = Polymorph screen: maturation in solvents, XRPD; settings: for XPRD Characterisation after maturation: 3 days
Description: An initial polymorphism screen was performed for the fumarate and citrate salts using 10 common class II and III organic solvents (with and without addition of water), plus pure water. […] The samples were subjected to a series of heat/cool cycles (room temp […], 8 hour cycles). After 3 days, the samples were filtered and the solids were characterised by XRPD analysis.

[3] = Thermodynamic aqueous solubility; settings: for solubility at 24 h: 25 °C, thermodynamic from solid; for solubility at 24 h / aqueous solubility: water; for final pH: pH of the aqueous suspension after equilibration; for aqueous solubility: 25° C., 24 hours
Description: Aqueous solubility was determined by suspending sufficient compound in water to give a maximum final concentration of 210 mg·ml^−1 of the parent free-form of the compound. The suspension was equilibrated at 25° C. for 24 hours then the pH was measured. The suspension was then filtered through a glass fibre C filter into a 96 well plate. The filtrate was then diluted by a factor of 101. Quantitation was by HPLC with reference to a standard solution of approximately 0.1 mg·ml^−1. in DMSO. Different volumes of the standard, diluted and undiluted sample solutions were injected. The solubility was calculated using the peak areas determined by integration of the peak found at the same retention time as the principal peak in the standard injection.
Analysis was performed on an Agilent HP1 100 series system equipped with a diode array detector and using ChemStation software vB.02.01-SR1.

[4] = Gravimetric Vapour Sorption (GVS) at 25° C.
Description: Sorption isotherms were obtained using a SMS DVS Intrinsic moisture sorption analyser, controlled by SMS Analysis Suite software. The sample temperature was maintained at 25° C. by the instrument controls. The humidity was controlled by mixing streams of dry and wet nitrogen, with a total flow rate of 200 ml.min^−1. The relative humidity was measured by a calibrated Rotronic probe (dynamic range of 1.0-100% RH), located near the sample. The weight change, (mass relaxation) of the sample as a function of % RH was constantly monitored by the microbalance (accuracy ±0.005 mg). Typically 5-20 mg of sample was placed in a tared mesh stainless steel basket under ambient conditions. The sample was loaded and unloaded at 40% RH and 25° C. (typical room conditions). A moisture sorption isotherm was performed as outlined below (2 scans giving 1 complete cycle). The standard isotherm was performed at 25° C. at 10% RH intervals over a 0.5-90% RH range. The sample was recovered after completion of the isotherm and re-analysed by XRPD.

[5] = Solid state stability at ambient conditions
[6] = Stability study: rate of hydration of anhydrous polymorph in methocel/Tween 80 test medium, XRPD; settings: for Time points where transformation was observed: no seeds
Description: Test medium was prepared by dissolving methocel (4 g) in water (196 mL) to afford a 2% (w/w) solution. After stirring for 12 hours to ensure a homogenous solution is obtained, Tween 80 (800 mg) and water (600 mL) was added and the mixture stirred for an additional 12 hours to homogenise.
(§1) Test medium (30 mL) was added and each sample was maturated at the indicated temperature and condition (−20° C., 4° C., room temperature with stirring and room temperature without stirring). […] The samples were monitored over time by XRPD to determine the rate of hydration of the anhydrous polymorph.
as §1, with “(5” for “(30”

[7] = Acetonitrile, w/ water (5% v/v)
[8] = DCM, w/o water, RT-50° C. cycles
[9] = Ethyl acetate, w/ water (5% v/v)
[10] = nitromethane, w/ water (5% v/v)
[11] = 1 mg/mL, 20-25° C. (under stirring)
[12] = 1 mg/mL, 20-25° C. (without stirring)
[13] = 10 mg/mL, 20-25° C. (under stirring)
[14] = 10 mg/mL, 20-25° C. (without stirring)
[15] = listed as Fumiarate Pattern 2, fumarate

CN1CC=CCCOc2cccc(c2)C2=CC=NC(=Nc3cccc(c3)C1)N2.O=S(=O)(O)c1ccccc1 [Besylate Pattern 1, 14-methyl-20-oxa-5,7,14,27-tetraazatetracyclo-[19.3.1.12,6.18,12]heptacosa-1(25),2,4,6,8,10,12(26),16,21,23-decaene besylate]
XPRD stability after 40° C./75% RH 2 weeks ([1]; besylate): stable
XPRD stability after 40° C./75% RH 2 weeks ([1]; listed as Besylate pattern 1, besylate): No change

CN1CC=CCCOc2cccc(c2)C2=CC=NC(=Nc3cccc(c3)C1)N2.O=C(O)CC(O)(CC(=O)O)C(=O)O [Citrate Pattern 1, 14-methyl-20-oxa-5,7,14,27-tetraazatetracyclo-[19.3.1.12,6.18,12]heptacosa-1(25),2,4,6,8,10,12(26),16,21,23-decaene citrate]
XPRD Characterisation after maturation ([2]; Acetone, w/ water (5% v/v)): Citrate Pattern 1
XPRD Characterisation after maturation ([2]; Acetone, w/o water): Citrate Pattern 1
XPRD Characterisation after maturation [2, 7]: Citrate Pattern 2
XPRD Characterisation after maturation ([2]; Acetonitrile, w/o water): Citrate Pattern 1
XPRD Characterisation after maturation ([2]; DCM, w/ water (5% v/v)): Citrate Pattern 3
XPRD Characterisation after maturation [2, 8]: Citrate Pattern 1
XPRD Characterisation after maturation ([2]; EtOH, w/ water (5% v/v)): Citrate Pattern 1
XPRD Characterisation after maturation ([2]; EtOH, w/o water): Citrate Pattern 1
XPRD Characterisation after maturation [2, 9]: Citrate Pattern 2
XPRD Characterisation after maturation ([2]; Ethyl acetate, w/o water): Citrate Pattern 1
XPRD Characterisation after maturation ([2]; IPA, w/ water (5% v/v)): Citrate Pattern 1
XPRD Characterisation after maturation ([2]; IPA, w/o water): Citrate Pattern 1
XPRD Characterisation after maturation ([2]; TBME, w/ water (5% v/v)): Citrate Pattern 2
XPRD Characterisation after maturation ([2]; TBME, w/o water): Citrate Pattern 1
XPRD Characterisation after maturation ([2]; THF, w/ water (5% v/v)): Citrate Pattern 2
XPRD Characterisation after maturation ([2]; THF, w/o water): Citrate Pattern 1
XPRD Characterisation after maturation ([2]; Toluene, w/ water (5% v/v)): Citrate Pattern 2
XPRD Characterisation after maturation ([2]; Toluene, w/o water): Citrate Pattern 1
transformation after 3 days of maturation in dried solvents [2]: No transformation
XPRD Characterisation after maturation [2, 10]: Citrate Pattern 2
XPRD Characterisation after maturation ([2]; nitromethane, w/o water): Citrate Pattern 1
XPRD Characterisation after maturation ([2]; pure water): Citrate Pattern 2
solubility at 24 h [3]: 0.16 mg/mL
final pH [3]: 3.94
aqueous solubility [3]: 0.16 mg/mL
XPRD stability after 40° C./75% RH 2 weeks ([1]; citrate): not sensitive to humidity; also recorded: no transformation; also recorded: crystallinity, and no change was observed after
XPRD stability after 40° C./75% RH 2 weeks ([1]; listed as Citrate pattern 1, citrate): No change
changes in the XRPD pattern after the GVS experiment ([4]; citrate): no transformation; also recorded: between 0 and 90% relative humidity. No
stability in the solid state [5]: stable
kinetics of hydration ([6]; comparison of citrate and fumarate salts): slower than for the fumarate salt
Time points where transformation was observed ([6]; 1 mg/mL, 4° C.): No
Time points where transformation was observed [6, 11]: 120 h
Time points where transformation was observed [6, 12]: Clear Solution
Time points where transformation was observed ([6]; 1 mg/mL, −20° C.): No
Time points where transformation was observed ([6]; 10 mg/mL, 4° C.): No
Time points where transformation was observed [6, 13]: 48 h
Time points where transformation was observed [6, 14]: No conversion
Time points where transformation was observed ([6]; 10 mg/mL, −20° C.): No

CN1CC=CCCOc2cccc(c2)C2=CC=NC(=Nc3cccc(c3)C1)N2.O=C(O)/C=C/C(=O)O [Fumarate Pattern 1, 14-methyl-20-oxa-5,7,14,27-tetraazatetracyclo-[19.3.1.12,6.18,12]heptacosa-1(25),2,4,6,8,10,12(26),16,21,23-decaene fumarate]
XPRD stability after 40° C./75% RH 2 weeks ([1]; listed as Fumarate pattern 1, fumarate): No change

CN1CC=CCCOc2cccc(c2)C2=CC=NC(=Nc3cccc(c3)C1)N2.O=C(O)/C=C/C(=O)O [Fumarate Pattern 2, 14-methyl-20-oxa-5,7,14,27-tetraazatetracyclo-[19.3.1.12,6.18,12]heptacosa-1(25),2,4,6,8,10,12(26),16,21,23-decaene fumarate]
XPRD Characterisation after maturation ([2]; Acetone, w/ water (5% v/v)): Fumarate Pattern 2
XPRD Characterisation after maturation ([2]; Acetone, w/o water): Fumarate Pattern 2
XPRD Characterisation after maturation [2, 7]: Fumarate Pattern 2
XPRD Characterisation after maturation ([2]; Acetonitrile, w/o water): Fumarate Pattern 2
XPRD Characterisation after maturation ([2]; DCM, w/ water (5% v/v)): Fumarate Pattern 2
XPRD Characterisation after maturation [2, 8]: Fumarate Pattern 2
XPRD Characterisation after maturation ([2]; EtOH, w/ water (5% v/v)): Fumarate Pattern 2
XPRD Characterisation after maturation ([2]; EtOH, w/o water): Fumarate Pattern 2
XPRD Characterisation after maturation [2, 9]: Fumarate Pattern 1
XPRD Characterisation after maturation ([2]; Ethyl acetate, w/o water): Fumarate Pattern 2
XPRD Characterisation after maturation ([2]; IPA, w/ water (5% v/v)): Fumarate Pattern 2
XPRD Characterisation after maturation ([2]; IPA, w/o water): Fumarate Pattern 2
XPRD Characterisation after maturation ([2]; TBME, w/ water (5% v/v)): Fumarate Pattern 1
XPRD Characterisation after maturation ([2]; TBME, w/o water): Fumarate Pattern 2
XPRD Characterisation after maturation ([2]; THF, w/ water (5% v/v)): Fumarate Pattern 2
XPRD Characterisation after maturation ([2]; THF, w/o water): Fumarate Pattern 2
XPRD Characterisation after maturation ([2]; Toluene, w/ water (5% v/v)): Fumarate Pattern 1
XPRD Characterisation after maturation ([2]; Toluene, w/o water): Fumarate Pattern 2
transformation after 3 days of maturation in dried solvents [2]: No transformation
XPRD Characterisation after maturation [2, 10]: Fumarate Pattern 2
XPRD Characterisation after maturation ([2]; nitromethane, w/o water): Fumarate Pattern 2
XPRD Characterisation after maturation ([2]; pure water): Fumarate Pattern 1
solubility at 24 h [3]: 0.029 mg/mL
final pH [3]: 3.80
aqueous solubility [3]: 0.029 mg/mL
XPRD stability after 40° C./75% RH 2 weeks ([1]; fumarate): not sensitive to humidity
XPRD stability after 40° C./75% RH 2 weeks ([1]; listed as Fumarate pattern 2, fumarate): no transformation
XPRD stability after 40° C./75% RH 2 weeks ([1]; listed as Fumareate pattern 2, fumarate): No change
XPRD stability after 40° C./75% RH 2 weeks [1, 15]: crystallinity, and no change was observed after
changes in the XRPD pattern after the GVS experiment ([4]; fumarate): no transformation
changes in the XRPD pattern after the GVS experiment [4, 15]: between 0 and 90% relative humidity. No
stability in the solid state [5]: stable
Time points where transformation was observed ([6]; 1 mg/mL, 4° C.): 120 h
Time points where transformation was observed [6, 11]: 24 h
Time points where transformation was observed [6, 12]: 48 h
Time points where transformation was observed ([6]; 1 mg/mL, −20° C.): 120 h
Time points where transformation was observed ([6]; 10 mg/mL, 4° C.): No
Time points where transformation was observed [6, 13]: 48 h
Time points where transformation was observed [6, 14]: 120 h
Time points where transformation was observed ([6]; 10 mg/mL, −20° C.): No
